Starred links: 1 amine or outer side, 2 acyl side, 3 side chain; linkers in the order of their positions; H or OH if unused. Positions of bridges follow the written chain, without caps; N, C: chain ends. Non-standard residues stand in square brackets, D forms with d. Residues, ends and D or L forms follow the SMILES beside them. *: point of attachment. NMeAbu(3,3-F2-piperidino) = CN[C@@H](CCN1CCCC(F)(F)C1)C(=O)O; X10 = O=C([C@H]1C[C@@H](N2CCC(F)(F)CC2)CN1[*:1])[*:2]; NMeAla(4-thiazolyl) = CN[C@@H](Cc1cscn1)C(=O)O; Phe(4-CHF2) = N[C@@H](Cc1ccc(C(F)F)cc1)C(=O)O; NMePhe(3-Cl) = CN[C@@H](Cc1cccc(Cl)c1)C(=O)O; X8 = O=C(CN(CCN1CCC(F)(F)CC1)[*:1])[*:2]; Ethyl(2-morpholino) = C1CN(CC*)CCO1; hhPhe = N[C@@H](CCCc1ccccc1)C(=O)O; X3 = O=C([C@H](CCCCO)N[*:1])[*:2]; NMeF = CN[C@@H](Cc1ccccc1)C(=O)O; NMeGABA = CN(CCCC(=O)[*:2])[*:1]; NMeI = CC[C@H](C)[C@H](NC)C(=O)O; hPhe = N[C@@H](CCc1ccccc1)C(=O)O; CH2CONHtBu = CC(C)(C)NC(=O)C*; NMeL = CN[C@@H](CC(C)C)C(=O)O; dNMeL = CN[C@H](CC(C)C)C(=O)O; Propyl(2R-OH) = C[C@@H](O)C*; dNMeAbu = CC[C@@H](NC)C(=O)O; NMeV = CN[C@H](C(=O)O)C(C)C; NMeAbu = CC[C@H](NC)C(=O)O; NPentylGly = CCCCCNCC(=O)O; hSer = N[C@@H](CCO)C(=O)O; NMeA = CN[C@@H](C)C(=O)O; Piperidide = C1CCN(*)CC1; CH2CMe2OH = CC(C)(O)C*; NBuGly = CCCCNCC(=O)O; NPrGly = CCCNCC(=O)O; X2 = Fc1cncc(C*)c1; Sar = CNCC(=O)O; tBu = CC(C)(C)*; CHF2 = FC(F)*

The test system of one series is Caco-2 cells. The series is described as follows: Caco-2 membrane permeability, improved method as used in the following Examples (96-well, 20 to 24 h preincubation). The following applies: Papp, Caco-2 membrane permeability, improved method. In kind it is in vitro ADME. The essentials: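 Papp (cm/sec) was derived from LC/MS of basal samples collected 180 min after apical dosing in FaSSIF/HBSS pH 6.0 with 1% DMSO, against a basal HBSS pH 7.4 receiver containing 4% BSA. Three-week Caco-2 cultures were first preincubated with compound in DMEM+FaSSIF at 37 °C for 20–24 h.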
As to `CC(C)C[C@H]1C(=O)N[C@@H](CCCCO)C(=O)N(C)[C@@H](CC(C)C)C(=O)N(C)[C@@H](CC(C)C)C(=O)N[C@H](C(=O)N2CCCCC2)CC(=O)N(C)CCCC(=O)N(C)[C@@H](C(C)C)C(=O)N[C@@H](C(C)C)C(=O)N(C)[C@@H](Cc2ccccc2)C(=O)N(C)[C@@H](Cc2ccccc2)C(=O)N[C@@H](COC(C)(C)C)C(=O)N1C` [pd447] ([NMeGABA][NMeV]V[NMeF][NMeF]S(tBu)[NMeL][X3][NMeL][NMeL]D-Piperidide; lactam N-11), the Caco-2 amounted to 1.1e-06 cm/s.

The series is the same for the next values; noted with them: human, Caco-2, 180 min.
With `CC(C)C[C@H]1C(=O)N[C@@H](COC(C)(C)C)C(=O)N(C)[C@@H](Cc2ccccc2)C(=O)N(C)[C@@H](C)C(=O)N[C@H](C(=O)N2CCCCC2)CC(=O)N[C@H](C(C)C)C(=O)N(C)[C@@H](Cc2ccccc2)C(=O)N[C@@H](CCCc2ccccc2)C(=O)N(C)[C@@H](CC(C)C)C(=O)N[C@@H]([C@@H](C)O)C(=O)N(C)CC(=O)N1C` [pd363] ([dV][NMeF][hhPhe][NMeL]T[Sar][NMeL]S(tBu)[NMeF][NMeA]D-Piperidide; lactam N-11), the Caco-2 came out at 1.1e-06 cm/s.

`CC(C)C[C@@H]1NC(=O)[C@H](CCN2CCCC(F)(F)C2)N(C)C(=O)[C@@H](C(C)C)NC(=O)C[C@@H](C(=O)N2CCCCC2)NC(=O)[C@H](C)N(C)C(=O)[C@H](Cc2cccc(Cl)c2)N(C)C(=O)[C@H](CC(C)C)NC(=O)[C@H](CC(C)C)N(C)C(=O)CN(C)C(=O)[C@H]([C@@H](C)O)NC(=O)[C@H](Cc2ccccc2)N(C)C1=O` [pd389] ([dV][NMeAbu(3,3-F2-piperidino)]L[NMeF]T[Sar][NMeL]L[NMePhe(3-Cl)][NMeA]D-Piperidide; lactam N-11) yielded a Caco-2 of 1.1e-06 cm/s.

With `CCCN1CC(=O)N(C)[C@@H](CC(C)C)C(=O)N[C@@H](CC(C)C)C(=O)N(C)[C@@H](Cc2ccccc2)C(=O)N(C)[C@@H](C)C(=O)N[C@H](C(=O)N2CCCCC2)CC(=O)N[C@H](CC(C)C)C(=O)N(C)[C@@H](Cc2ccccc2)C(=O)N[C@@H](COCC(=O)NC(C)(C)C)C(=O)N(C)[C@@H](CC(C)C)C(=O)N[C@@H]([C@@H](C)O)C1=O` [pd442] ([dL][NMeF]S(CH2CONHtBu)[NMeL]T[NPrGly][NMeL]L[NMeF][NMeA]D-Piperidide; lactam N-11), the Caco-2 was determined as 1.1e-06 cm/s.

The molecule `CCCCCN1CC(=O)N[C@@H](COC(C)(C)C)C(=O)N(C)[C@@H](Cc2ccccc2)C(=O)N(C)[C@@H](CC(C)C)C(=O)N[C@H](C(=O)N2CCCCC2)CC(=O)N[C@H](CC(C)C)C(=O)N(C)[C@@H](Cc2ccccc2)C(=O)N[C@@H]([C@@H](C)CC)C(=O)N(C)[C@@H](CC)C(=O)N[C@@H]([C@@H](C)O)C(=O)N(C)CC1=O` [pd406] ([dL][NMeF]I[NMeAbu]T[Sar][NPentylGly]S(tBu)[NMeF][NMeL]D-Piperidide; lactam N-11) yielded a Caco-2 of 1.1e-06 cm/s.

As for `CC(C)C[C@H]1C(=O)N[C@@H](COC(C)(C)C)C(=O)N(C)[C@@H](Cc2ccccc2)C(=O)N(C)[C@@H](CC(C)C)C(=O)N[C@H](C(=O)N2CCCCC2)CC(=O)N[C@H](C(C)C)C(=O)N(C)[C@@H](C(C)C)C(=O)N[C@@H](Cc2ccc(OC(F)F)cc2)C(=O)N(C)[C@@H](CC(C)C)C(=O)N[C@@H]([C@@H](C)O)C(=O)N(C)CC(=O)N1C` [pd476] ([dV][NMeV]Y(CHF2)[NMeL]T[Sar][NMeL]S(tBu)[NMeF][NMeL]D-Piperidide; lactam N-11), the Caco-2 worked out at 1.1e-06 cm/s.

For the molecule `CC[C@H](C)[C@H]1C(=O)N[C@@H]([C@@H](C)O)C(=O)N(C)CC(=O)N(C)[C@@H](CC(C)C)C(=O)N[C@H](C(=O)N2CCCCC2)CC(=O)N(C)[C@@H](C(C)C)C(=O)N[C@@H](COCc2cncc(F)c2)C(=O)N(C)[C@@H](CC(C)C)C(=O)N(C)[C@@H](Cc2ccccc2)C(=O)N[C@@H](CC(C)C)C(=O)N(C)[C@@H](Cc2ccccc2)C(=O)N1C` [pd347] ([NMeV]S(X2)[NMeL][NMeF]L[NMeF][NMeI]T[Sar][NMeL]D-Piperidide; lactam N-11), the Caco-2 amounted to 1.1e-06 cm/s.

With `CC(C)C[C@H]1C(=O)N[C@H](C(=O)N2CCCCC2)CC(=O)N[C@H](C)C(=O)N(C)[C@@H](CC(C)C)C(=O)N[C@@H](COC(C)(C)C)C(=O)N(C)[C@@H](C)C(=O)N(C)[C@@H](CC(C)C)C(=O)N(C)[C@@H](C)C(=O)N[C@@H]([C@@H](C)O)C(=O)N(C)[C@@H](Cc2ccccc2)C(=O)N[C@@H](CCc2ccccc2)C(=O)N1C` [pd309] ([dA][NMeL]S(tBu)[NMeA][NMeL][NMeA]T[NMeF][hPhe][NMeL]D-Piperidide; lactam N-11), the Caco-2 is 1.1e-06 cm/s.

Molecule `CC(C)C[C@H]1C(=O)N[C@@H](COC(C)(C)C)C(=O)N(C)[C@@H](Cc2ccccc2)C(=O)N(C)[C@@H](CC(C)C)C(=O)N[C@H](C(=O)N2CCCCC2)CC(=O)N[C@H](C(C)C)C(=O)N(C)[C@@H](C(C)C)C(=O)N[C@@H](Cc2ccc(C(F)F)cc2)C(=O)N(C)[C@@H](CC(C)C)C(=O)N[C@@H]([C@@H](C)O)C(=O)N(C)CC(=O)N1C` [pd472] ([dV][NMeV][Phe(4-CHF2)][NMeL]T[Sar][NMeL]S(tBu)[NMeF][NMeL]D-Piperidide; lactam N-11) came in with a Caco-2 of 1.1e-06 cm/s.

For `CCCN1CC(=O)N(C)[C@@H](Cc2ccccc2)C(=O)N[C@@H]([C@@H](C)CC)C(=O)N(C)[C@@H](CC(C)C)C(=O)N[C@@H]([C@@H](C)O)C(=O)N(CCC)CC(=O)N(C)[C@@H](Cc2ccccc2)C(=O)N(C)[C@@H](CC(C)C)C(=O)N[C@@H](COCC(C)(C)O)C(=O)N(C)[C@@H](C(C)C)C(=O)N[C@H](C(=O)N2CCCCC2)CC1=O` [pd431] ([NPrGly][NMeF]I[NMeL]T[NPrGly][NMeF][NMeL]S(CH2CMe2OH)[NMeV]D-Piperidide; lactam N-11), the Caco-2 was determined as 1.1e-06 cm/s.

Consider `CC[C@H](C)[C@H]1C(=O)N[C@@H]([C@@H](C)O)C(=O)N(C)CC(=O)N(C)[C@@H](CC(C)C)C(=O)N[C@H](C(=O)N2CCCCC2)CC(=O)N(C)[C@@H](C(C)C)C(=O)N[C@@H](COC[C@@H](C)O)C(=O)N(C)[C@H](CC(C)C)C(=O)N(C)[C@@H](Cc2cccc(Cl)c2)C(=O)N[C@@H](CC(C)C)C(=O)N(C)[C@@H](Cc2ccccc2)C(=O)N1C` [pd491] ([NMeV]S(Propyl(2R-OH))[dNMeL][NMePhe(3-Cl)]L[NMeF][NMeI]T[Sar][NMeL]D-Piperidide; lactam N-11), for which the Caco-2 is 1.1e-06 cm/s.

With `CC(C)C[C@H]1C(=O)N[C@H](C(=O)N2CCCCC2)CC(=O)N[C@H](C)C(=O)N2C[C@H](N3CCC(F)(F)CC3)C[C@@H]2C(=O)N[C@@H](COC(C)(C)C)C(=O)N(C)[C@@H](CC(C)C)C(=O)N(C)[C@@H](CC(C)C)C(=O)N(C)[C@@H](CC(C)C)C(=O)N[C@@H]([C@@H](C)O)C(=O)N(C)[C@@H](Cc2ccccc2)C(=O)N[C@@H](Cc2ccccc2)C(=O)N1C` [pd457] ([dA][X10]S(tBu)[NMeL][NMeL][NMeL]T[NMeF]F[NMeL]D-Piperidide; lactam N-11), the Caco-2 is 1.1e-06 cm/s.

As to `CCCCN1CC(=O)N(C)[C@@H](CC(C)C)C(=O)N[C@H](C(=O)N2CCCCC2)CC(=O)N(C)[C@@H](CC(C)C)C(=O)N[C@@H](CC(C)C)C(=O)N(C)[C@@H](CC(C)C)C(=O)N(C)[C@@H](Cc2cscn2)C(=O)N[C@@H](CC(C)C)C(=O)N(C)[C@@H](Cc2ccccc2)C(=O)N(C)[C@@H]([C@@H](C)CC)C(=O)N[C@@H](CCC(=O)NC)C1=O` [pd465] ([NMeL]L[NMeL][NMeAla(4-thiazolyl)]L[NMeF][NMeI]E(NHMe)[NBuGly][NMeL]D-Piperidide; lactam N-11), the Caco-2 amounted to 1.1e-06 cm/s.

In turn, `CC(C)C[C@H]1C(=O)N[C@H](C(=O)N2CCCCC2)CC(=O)N(C)CC(=O)N(C)[C@@H](Cc2ccccc2)C(=O)N[C@@H](C(C)C)C(=O)N(C)[C@@H](CC(C)C)C(=O)N[C@@H]([C@@H](C)O)C(=O)N(CCN2CCC(F)(F)CC2)CC(=O)N(C)[C@@H](Cc2ccccc2)C(=O)N(C)[C@@H](CC(C)C)C(=O)N[C@@H](COC(C)(C)C)C(=O)N1C` [pd455] ([Sar][NMeF]V[NMeL]T[X8][NMeF][NMeL]S(tBu)[NMeL]D-Piperidide; lactam N-11) yielded a Caco-2 of 1.1e-06 cm/s.

The molecule `CCCCN1CC(=O)N(C)[C@@H](CC(C)C)C(=O)N[C@H](C(=O)N2CCCCC2)CC(=O)N(C)[C@@H](C)C(=O)N[C@@H](COC[C@@H](C)O)C(=O)N(C)[C@H](CC(C)C)C(=O)N(C)[C@@H](Cc2cccc(Cl)c2)C(=O)N[C@@H](CC(C)C)C(=O)N(C)[C@@H](Cc2ccccc2)C(=O)N(C)[C@@H]([C@@H](C)CC)C(=O)N[C@@H]([C@@H](C)O)C1=O` [pd489] ([NMeA]S(Propyl(2R-OH))[dNMeL][NMePhe(3-Cl)]L[NMeF][NMeI]T[NBuGly][NMeL]D-Piperidide; lactam N-11) returned a Caco-2 of 1.1e-06 cm/s.

Take `CCCCN1CC(=O)N(C)[C@@H](CC(C)C)C(=O)N[C@H](C(=O)N2CCCCC2)CC(=O)N(C)[C@@H](CC)C(=O)N[C@H](CC(C)C)C(=O)N(C)[C@@H](CC(C)C)C(=O)N(C)[C@@H](Cc2ccccc2)C(=O)N[C@@H](COCCN2CCOCC2)C(=O)N(C)[C@H](CC)C(=O)N(C)[C@@H](CC(C)C)C(=O)N[C@@H]([C@@H](C)O)C1=O` [pd482] ([NMeAbu][dL][NMeL][NMeF]S(Ethyl(2-morpholino))[dNMeAbu][NMeL]T[NBuGly][NMeL]D-Piperidide; lactam N-11): the Caco-2 was 1.1e-06 cm/s.

`CCCCN1CC(=O)N(C)[C@@H](Cc2ccccc2)C(=O)N(C)[C@@H](CC(C)C)C(=O)N[C@@H](CC(C)C)C(=O)N(C)[C@@H](CC(C)C)C(=O)N[C@H](C(=O)N2CCCCC2)CC(=O)N(C)CC(=O)N(C)[C@@H](Cc2ccccc2)C(=O)N[C@@H](CCOCC)C(=O)N(C)[C@@H](CC(C)C)C(=O)N[C@@H]([C@@H](C)O)C1=O` [pd445] ([Sar][NMeF][hSer](Et)[NMeL]T[NBuGly][NMeF][NMeL]L[NMeL]D-Piperidide; lactam N-11) displayed a Caco-2 of 1.1e-06 cm/s.

(Values after patent US20200131669A1, “CYCLIC PEPTIDE COMPOUND HAVING HIGH MEMBRANE PERMEABILITY, AND LIBRARY CONTAINING SAME” (Chugai Seiyaku Kabushiki Kaisha, priority 2017, published 2020).)
